Data as given in PMC6199744, “Development of Chemical Proteomics for the Folateome and Analysis of the Kinetoplastid Folateome” (ACS Infectious Diseases, 2018).
Where two headings read alike, the source gives them in different places.

Legend:
Format in all cases: binding
[1] = molecular target: T1, HeLa cell extract proteins (Homo sapiens, UniProt Q96T76); details: HeLa
T1 construct: endogenous in cells; host or cells: HeLa cell extract
T1 sequence (Q96T76 1-1030): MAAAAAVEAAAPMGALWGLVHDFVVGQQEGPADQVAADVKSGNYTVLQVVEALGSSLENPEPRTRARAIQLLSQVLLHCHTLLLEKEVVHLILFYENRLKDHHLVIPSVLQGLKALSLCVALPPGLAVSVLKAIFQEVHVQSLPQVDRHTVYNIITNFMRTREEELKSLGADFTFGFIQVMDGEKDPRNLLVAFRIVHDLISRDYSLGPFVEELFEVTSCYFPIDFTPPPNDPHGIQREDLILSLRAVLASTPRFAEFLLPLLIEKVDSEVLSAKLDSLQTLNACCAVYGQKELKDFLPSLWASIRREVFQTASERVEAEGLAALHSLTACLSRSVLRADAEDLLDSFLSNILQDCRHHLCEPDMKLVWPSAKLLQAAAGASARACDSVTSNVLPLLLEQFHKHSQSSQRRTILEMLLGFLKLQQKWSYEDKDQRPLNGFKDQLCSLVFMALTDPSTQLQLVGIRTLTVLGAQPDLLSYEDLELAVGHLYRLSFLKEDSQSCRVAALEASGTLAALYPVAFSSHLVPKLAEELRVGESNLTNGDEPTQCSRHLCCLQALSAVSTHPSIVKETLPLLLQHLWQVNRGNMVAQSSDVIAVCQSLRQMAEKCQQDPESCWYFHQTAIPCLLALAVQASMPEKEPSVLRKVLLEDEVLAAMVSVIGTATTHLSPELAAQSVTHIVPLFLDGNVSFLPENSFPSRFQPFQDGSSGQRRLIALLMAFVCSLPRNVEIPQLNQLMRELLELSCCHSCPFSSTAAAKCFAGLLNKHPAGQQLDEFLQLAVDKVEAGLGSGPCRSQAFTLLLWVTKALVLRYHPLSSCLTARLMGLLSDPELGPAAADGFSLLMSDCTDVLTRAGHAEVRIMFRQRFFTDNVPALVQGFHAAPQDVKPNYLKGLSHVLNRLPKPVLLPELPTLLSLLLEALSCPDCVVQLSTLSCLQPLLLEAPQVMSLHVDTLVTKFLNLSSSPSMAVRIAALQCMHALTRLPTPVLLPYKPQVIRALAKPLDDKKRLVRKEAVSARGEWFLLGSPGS

[2] = molecular target: T2, HeLa cell extract proteins (Homo sapiens, UniProt Q13200); details: protein PSMD2; HeLa
T2 construct: endogenous in cells; host or cells: HeLa cell extract

[3] = molecular target: T3, HeLa cell extract proteins (Homo sapiens, UniProt Q05048); details: HeLa
T3 construct: endogenous in cells; host or cells: HeLa cell extract
T3 sequence (Q05048 1-431): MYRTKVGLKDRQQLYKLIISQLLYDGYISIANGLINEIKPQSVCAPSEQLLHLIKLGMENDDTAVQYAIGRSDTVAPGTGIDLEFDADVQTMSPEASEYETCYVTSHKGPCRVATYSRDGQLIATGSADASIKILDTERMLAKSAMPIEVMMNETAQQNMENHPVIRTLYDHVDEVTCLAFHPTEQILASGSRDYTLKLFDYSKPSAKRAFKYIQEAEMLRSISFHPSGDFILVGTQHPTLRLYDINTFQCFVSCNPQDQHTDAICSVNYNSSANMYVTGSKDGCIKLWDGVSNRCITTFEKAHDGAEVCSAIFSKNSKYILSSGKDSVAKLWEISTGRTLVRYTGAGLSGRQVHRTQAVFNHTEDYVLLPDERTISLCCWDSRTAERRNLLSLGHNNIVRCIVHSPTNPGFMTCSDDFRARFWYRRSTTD

[4] = molecular target: T4, HeLa cell extract proteins (Homo sapiens, UniProt Q8WWC4)
T4 construct: endogenous in cells; host or cells: HeLa cell extract
T4 sequence (Q8WWC4 97-291): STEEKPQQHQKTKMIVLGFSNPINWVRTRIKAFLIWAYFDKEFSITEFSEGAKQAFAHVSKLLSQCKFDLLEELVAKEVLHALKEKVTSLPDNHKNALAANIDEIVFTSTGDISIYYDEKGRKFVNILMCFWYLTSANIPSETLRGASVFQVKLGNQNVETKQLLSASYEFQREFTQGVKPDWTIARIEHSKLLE

[5] = test system: HeLa cell extract proteins
[6] = molecular target: T5, HeLa cell extract proteins (Homo sapiens, UniProt Q14764); details: HeLa; protein MVP
T5 construct: endogenous in cells; host or cells: HeLa cell extract

[7] = molecular target: T6, HeLa cell extract proteins (Homo sapiens, UniProt Q9UJX4)
T6 construct: endogenous in cells; host or cells: HeLa cell extract

[8] = molecular target: T7, HeLa cell extract proteins (Homo sapiens, UniProt O95429); details: HeLa
T7 construct: endogenous in cells; host or cells: HeLa cell extract
T7 sequence (O95429 1-457): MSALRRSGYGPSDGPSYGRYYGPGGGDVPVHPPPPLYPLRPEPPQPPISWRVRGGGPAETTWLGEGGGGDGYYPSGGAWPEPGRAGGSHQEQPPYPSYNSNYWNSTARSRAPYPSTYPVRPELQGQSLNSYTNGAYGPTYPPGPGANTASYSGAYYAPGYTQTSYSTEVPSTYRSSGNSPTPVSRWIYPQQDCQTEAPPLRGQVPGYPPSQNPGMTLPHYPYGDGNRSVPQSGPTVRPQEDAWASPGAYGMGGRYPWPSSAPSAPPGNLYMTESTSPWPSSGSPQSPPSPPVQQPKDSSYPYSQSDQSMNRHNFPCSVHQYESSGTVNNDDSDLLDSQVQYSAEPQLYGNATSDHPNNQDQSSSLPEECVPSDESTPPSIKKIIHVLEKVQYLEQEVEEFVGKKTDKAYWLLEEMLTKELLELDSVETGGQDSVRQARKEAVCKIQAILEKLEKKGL

[9] = molecular target: T8, HeLa cell extract proteins (Homo sapiens, UniProt O00571); details: HeLa
T8 construct: endogenous in cells; host or cells: HeLa cell extract

[10] = molecular target: T9, HeLa cell extract proteins (Homo sapiens, UniProt P17980); details: protein PSMC3; HeLa
T9 construct: endogenous in cells; host or cells: HeLa cell extract

[11] = HeLa; captured protein LOC442497
[12] = HeLa; protein ABCB7 (ISOFORM 2 OF ATP-BINDING CASSETTE SUB-FAMILY B MEMBER 7, MIT[…])
[13] = HeLa; protein ASAH1 (N-ACYLSPHINGOSINE AMIDOHYDROLASE (ACID CERAMIDASE) 1 ISOFORM B)
[14] = HeLa; protein GTPBP3 (ISOFORM 2 OF TRNA MODIFICATION GTPASE GTPBP3, MITOCHONDRIAL PRECURSOR)
[15] = HeLa; protein MYL6 (ISOFORM SMOOTH MUSCLE OF MYOSIN LIGHT POLYPEPTIDE 6)
[16] = HeLa; protein PSMA1 (ISOFORM LONG OF […] ALPHA TYPE 1)
[17] = protein BAG4 (BAG FAMILY MOLECULAR CHAPERONE REGULATOR 4)
[18] = HeLa; protein A8MV93_HUMAN (SIMILAR TO CYTOCHROME C.)
[19] = HeLa; protein CTNNA1 (ISOFORM 2 OF CATENIN ALPHA-1.)
[20] = HeLa; protein EIF5A (ISOFORM 2 OF EUKARYOTIC TRANSLATION INITIATION FACTOR 5A-1.)
[21] = HeLa; protein NME1-NME2 (NUCLEOSIDE DIPHOSPHATE KINASE.)

T6 sequence (Q9UJX4 whole entry): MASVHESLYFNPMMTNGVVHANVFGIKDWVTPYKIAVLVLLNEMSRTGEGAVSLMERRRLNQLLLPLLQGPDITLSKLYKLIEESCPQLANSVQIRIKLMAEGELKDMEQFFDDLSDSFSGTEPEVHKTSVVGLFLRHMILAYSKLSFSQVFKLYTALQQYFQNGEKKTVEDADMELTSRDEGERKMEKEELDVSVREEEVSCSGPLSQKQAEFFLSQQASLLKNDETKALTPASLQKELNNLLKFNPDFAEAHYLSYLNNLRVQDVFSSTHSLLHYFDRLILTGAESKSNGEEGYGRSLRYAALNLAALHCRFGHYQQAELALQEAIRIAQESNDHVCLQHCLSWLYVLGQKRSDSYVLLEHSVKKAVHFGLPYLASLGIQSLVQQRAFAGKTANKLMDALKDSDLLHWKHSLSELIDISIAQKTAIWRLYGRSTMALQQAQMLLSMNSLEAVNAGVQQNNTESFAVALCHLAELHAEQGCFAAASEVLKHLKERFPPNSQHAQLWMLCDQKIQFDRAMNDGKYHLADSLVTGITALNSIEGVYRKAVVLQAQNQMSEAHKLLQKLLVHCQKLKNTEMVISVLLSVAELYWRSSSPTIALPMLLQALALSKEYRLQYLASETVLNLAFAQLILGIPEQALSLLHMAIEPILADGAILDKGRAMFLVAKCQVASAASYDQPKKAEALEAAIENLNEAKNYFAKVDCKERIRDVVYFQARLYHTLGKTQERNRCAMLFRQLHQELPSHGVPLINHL
T9 sequence (P17980 whole entry): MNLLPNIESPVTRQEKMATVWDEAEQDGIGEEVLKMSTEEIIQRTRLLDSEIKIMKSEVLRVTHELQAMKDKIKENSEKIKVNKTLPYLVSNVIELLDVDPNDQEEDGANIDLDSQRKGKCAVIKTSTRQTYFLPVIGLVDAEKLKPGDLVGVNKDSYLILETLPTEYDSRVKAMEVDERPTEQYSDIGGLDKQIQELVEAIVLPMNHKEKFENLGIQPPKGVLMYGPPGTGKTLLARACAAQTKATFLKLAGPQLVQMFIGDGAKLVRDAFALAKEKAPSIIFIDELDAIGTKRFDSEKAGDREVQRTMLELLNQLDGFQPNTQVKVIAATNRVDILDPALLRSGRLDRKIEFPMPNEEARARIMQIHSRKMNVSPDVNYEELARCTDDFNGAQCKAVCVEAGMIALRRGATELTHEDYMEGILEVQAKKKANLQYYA
T8 sequence (O00571 whole entry): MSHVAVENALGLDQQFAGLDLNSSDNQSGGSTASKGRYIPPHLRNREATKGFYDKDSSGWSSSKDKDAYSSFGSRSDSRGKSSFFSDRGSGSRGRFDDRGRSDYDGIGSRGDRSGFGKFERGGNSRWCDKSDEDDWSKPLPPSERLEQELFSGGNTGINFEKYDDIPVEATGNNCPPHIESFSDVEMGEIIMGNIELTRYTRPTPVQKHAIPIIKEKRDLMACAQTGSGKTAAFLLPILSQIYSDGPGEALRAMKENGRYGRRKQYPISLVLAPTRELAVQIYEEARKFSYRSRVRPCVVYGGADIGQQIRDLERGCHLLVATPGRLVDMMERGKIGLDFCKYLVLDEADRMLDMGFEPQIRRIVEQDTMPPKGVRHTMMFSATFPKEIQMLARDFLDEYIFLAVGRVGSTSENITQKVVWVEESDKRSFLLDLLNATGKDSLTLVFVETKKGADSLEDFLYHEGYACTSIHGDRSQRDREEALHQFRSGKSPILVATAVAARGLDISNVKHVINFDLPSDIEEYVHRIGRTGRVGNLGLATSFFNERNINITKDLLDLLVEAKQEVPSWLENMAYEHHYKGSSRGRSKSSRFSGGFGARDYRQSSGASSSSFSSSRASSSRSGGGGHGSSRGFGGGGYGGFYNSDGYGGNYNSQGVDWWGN
T2 sequence (Q13200 whole entry): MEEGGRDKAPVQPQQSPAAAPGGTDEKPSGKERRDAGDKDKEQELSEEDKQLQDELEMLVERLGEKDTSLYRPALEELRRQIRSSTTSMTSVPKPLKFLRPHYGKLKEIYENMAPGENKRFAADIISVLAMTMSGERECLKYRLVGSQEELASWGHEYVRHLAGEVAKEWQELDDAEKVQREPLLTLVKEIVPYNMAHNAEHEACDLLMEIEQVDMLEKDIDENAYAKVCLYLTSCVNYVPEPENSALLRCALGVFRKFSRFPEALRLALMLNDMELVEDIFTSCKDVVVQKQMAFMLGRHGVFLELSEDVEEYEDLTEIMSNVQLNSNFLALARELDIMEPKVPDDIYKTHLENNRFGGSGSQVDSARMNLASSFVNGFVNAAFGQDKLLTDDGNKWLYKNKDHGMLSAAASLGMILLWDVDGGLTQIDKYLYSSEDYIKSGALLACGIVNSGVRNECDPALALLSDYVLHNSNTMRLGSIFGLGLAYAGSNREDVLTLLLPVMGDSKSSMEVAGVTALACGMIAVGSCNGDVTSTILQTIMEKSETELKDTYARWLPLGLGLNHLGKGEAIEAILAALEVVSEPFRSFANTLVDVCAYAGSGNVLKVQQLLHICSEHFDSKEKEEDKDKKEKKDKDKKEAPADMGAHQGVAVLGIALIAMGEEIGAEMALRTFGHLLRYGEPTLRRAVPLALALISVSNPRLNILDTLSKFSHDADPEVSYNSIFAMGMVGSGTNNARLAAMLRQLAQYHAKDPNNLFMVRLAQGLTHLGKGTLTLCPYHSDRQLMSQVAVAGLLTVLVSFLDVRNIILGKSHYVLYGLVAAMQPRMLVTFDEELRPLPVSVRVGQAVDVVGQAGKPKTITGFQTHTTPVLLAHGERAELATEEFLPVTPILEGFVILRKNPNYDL
T5 sequence (Q14764 whole entry): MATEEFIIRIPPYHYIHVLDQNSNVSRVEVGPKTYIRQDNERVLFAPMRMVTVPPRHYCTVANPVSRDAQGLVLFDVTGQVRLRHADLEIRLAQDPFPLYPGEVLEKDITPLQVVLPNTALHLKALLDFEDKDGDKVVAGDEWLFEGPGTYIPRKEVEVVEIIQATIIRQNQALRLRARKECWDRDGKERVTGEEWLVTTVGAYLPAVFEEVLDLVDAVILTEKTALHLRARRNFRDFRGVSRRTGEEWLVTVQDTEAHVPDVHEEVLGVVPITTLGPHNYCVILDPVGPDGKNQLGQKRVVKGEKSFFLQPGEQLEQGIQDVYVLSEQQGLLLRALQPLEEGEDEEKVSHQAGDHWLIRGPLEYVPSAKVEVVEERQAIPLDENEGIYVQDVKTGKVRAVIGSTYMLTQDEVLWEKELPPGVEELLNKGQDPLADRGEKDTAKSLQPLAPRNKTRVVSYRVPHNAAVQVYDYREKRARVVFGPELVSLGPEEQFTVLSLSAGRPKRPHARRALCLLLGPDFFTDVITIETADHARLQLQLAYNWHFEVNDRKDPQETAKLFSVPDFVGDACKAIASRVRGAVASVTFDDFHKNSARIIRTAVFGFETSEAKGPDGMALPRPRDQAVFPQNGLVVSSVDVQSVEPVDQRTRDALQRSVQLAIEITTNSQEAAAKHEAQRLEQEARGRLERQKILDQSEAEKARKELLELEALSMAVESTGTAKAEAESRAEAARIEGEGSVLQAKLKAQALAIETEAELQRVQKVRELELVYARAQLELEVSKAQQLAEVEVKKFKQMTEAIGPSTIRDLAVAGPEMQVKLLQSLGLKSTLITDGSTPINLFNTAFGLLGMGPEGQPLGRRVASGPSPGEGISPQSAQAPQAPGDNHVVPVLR

| Structure (SMILES) | fold changes relative to vehicle control ([1]; protein MMS19) | fold changes relative to vehicle control [2] | fold changes relative to vehicle control ([3]; captured protein CSTF1) | fold changes relative to vehicle control ([4]; protein C2ORF47; HeLa) | fold changes relative to vehicle control ([5]; HeLa; captured protein EIF1AP1) | fold changes relative to vehicle control [5, 11] | fold changes relative to vehicle control [5, 12] | fold changes relative to vehicle control [5, 13] | fold changes relative to vehicle control [5, 14] | fold changes relative to vehicle control ([5]; HeLa; protein LOC654188) | fold changes relative to vehicle control [5, 15] | fold changes relative to vehicle control ([5]; HeLa; protein NME1-NME2) | fold changes relative to vehicle control [5, 16] | fold changes relative to vehicle control ([5]; HeLa; protein RPLP0-LIKE) | fold changes relative to vehicle control ([5]; protein HIST2H2BA; HeLa) | fold changes relative to vehicle control ([5]; protein LOC646960; HeLa) | fold changes relative to vehicle control [6] | fold changes relative to vehicle control ([7]; HeLa; captured protein ANAPC5) | fold changes relative to vehicle control [8, 17] | fold changes relative to vehicle control [10] | further results |
| --- | --- | --- | --- | --- | --- | --- | --- | --- | --- | --- | --- | --- | --- | --- | --- | --- | --- | --- | --- | --- | --- |
| Nc1nc2c(c(=O)[nH]1)N(C=O)C(CNc1ccc(C(=O)N[C@@H](CCC(=O)O)C(=O)O)cc1)CN2 (some centres unmarked) [LEU, leucovorin] | 0.87 | 0.84 | 1 | 0.93 | 0.99 | 1.06 | 1.18 | 1.17 | 0.27 | 0.98 | 1.06 | 0.99 | 1.18 | 0.86 | 0.92 | 0.84 | 0.99 | 1.07 | 1.2 | 1.02 | fold changes relative to vehicle control ([5]; HeLa; protein PSME1 ([…] SUBUNIT 1 ISOFORM 2)): 1.03; fold changes relative to vehicle control ([9]; captured protein DDX3X): 0.94 |
| NCCCNc1ccc(C(=O)NC(CCC(=O)O)C(=O)O)cc1 (centres unmarked) [compound 7] | 1.02 | 0.99 | 1.02 | 1.06 | 0.98 | 1.05 | 1.23 | 1.18 | 1 | 0.99 | 1.14 | 0.91 | 1.02 | 0.93 | 0.9 | 1.02 | 1.28 | 1.1 | 1.12 | 1.03 | fold changes relative to vehicle control ([5]; HeLa; protein PSME1 (PROTEASOME ACTIVATOR SUBUNIT 1 ISOFORM 2)): 0.98; fold changes relative to vehicle control ([9]; captured protein DDX3X): 0.93 |
| CCCCCCOc1cccc(Cc2cnc(N)nc2N)c1 [compound 2] |  | 1.41 |  |  |  |  |  |  |  |  |  |  |  |  |  |  | 1.23 |  |  | 1.46 | fold changes relative to vehicle control ([1]; captured protein MMS19): 0.94; fold changes relative to vehicle control ([3]; protein CSTF1): 0.99; fold changes relative to vehicle control ([4]; HeLa; protein C2ORF47): 1.06; fold changes relative to vehicle control [5, 18]: 2.46 fold; fold changes relative to vehicle control [5, 19]: 2.1 fold; fold changes relative to vehicle control [5, 20]: 2.05 fold; fold changes relative to vehicle control ([5]; HeLa; protein LOC646960): 1.08; fold changes relative to vehicle control ([5]; HeLa; protein LOC654188 (SIMILAR TO PEPTIDYLPROLYL ISOMERASE A-LIKE.)): 2.15 fold; fold changes relative to vehicle control [5, 21]: 2.13 fold; fold changes relative to vehicle control ([5]; protein EIF1AP1; HeLa): 1.77; fold changes relative to vehicle control ([5]; protein LOC442497; HeLa): 1.38; fold changes relative to vehicle control ([5]; protein RPLP0-LIKE; HeLa): 1.23; fold changes relative to vehicle control ([7]; captured protein ANAPC5; HeLa): 1; fold changes relative to vehicle control ([8]; captured protein BAG4): 0.93; fold changes relative to vehicle control ([9]; protein DDX3X): 1.05 |
| CCCCCCOc1ccc(Cc2cnc(N)nc2N)cc1 [compound 1] |  | 0.98 |  |  |  |  |  |  |  |  |  |  |  |  |  |  | 1.06 |  |  | 1.24 | fold changes relative to vehicle control ([1]; captured protein MMS19): 0.79; fold changes relative to vehicle control ([3]; protein CSTF1): 1.05; fold changes relative to vehicle control ([4]; HeLa; protein C2ORF47): 1.1; fold changes relative to vehicle control [5, 18]: 1.4 fold; fold changes relative to vehicle control [5, 19]: 1.26 fold; fold changes relative to vehicle control [5, 20]: 1.5 fold; fold changes relative to vehicle control ([5]; HeLa; protein LOC646960): 1.15; fold changes relative to vehicle control ([5]; HeLa; protein LOC654188 (SIMILAR TO PEPT[…] A-LIKE.)): 1.34 fold; fold changes relative to vehicle control [5, 21]: 1.36 fold; fold changes relative to vehicle control ([5]; protein EIF1AP1; HeLa): 1.3; fold changes relative to vehicle control ([5]; protein LOC442497; HeLa): 1.12; fold changes relative to vehicle control ([5]; protein RPLP0-LIKE; HeLa): 0.94; fold changes relative to vehicle control ([7]; captured protein ANAPC5; HeLa): 1.06; fold changes relative to vehicle control ([8]; captured protein BAG4): 0.99; fold changes relative to vehicle control ([9]; protein DDX3X): 0.96 |
